This passage reports IC50 results from patent US20090105218A1, “CRTH2 Receptor Ligands For Therapeutic Use” (7TM PHARMA A/S, priority 2004, published 2009).

pIC50: −log10 of the molar value. Some results are limits rather than exact numbers.

The target in the assay is T1, human CRTH2 receptor (Homo sapiens, UniProt Q9Y5Y4, V204A).
T1 construct: expressed in transfected cells; host or cells: COS-7 (transient transfection)
T1 sequence (Q9Y5Y4 1-395 V204A): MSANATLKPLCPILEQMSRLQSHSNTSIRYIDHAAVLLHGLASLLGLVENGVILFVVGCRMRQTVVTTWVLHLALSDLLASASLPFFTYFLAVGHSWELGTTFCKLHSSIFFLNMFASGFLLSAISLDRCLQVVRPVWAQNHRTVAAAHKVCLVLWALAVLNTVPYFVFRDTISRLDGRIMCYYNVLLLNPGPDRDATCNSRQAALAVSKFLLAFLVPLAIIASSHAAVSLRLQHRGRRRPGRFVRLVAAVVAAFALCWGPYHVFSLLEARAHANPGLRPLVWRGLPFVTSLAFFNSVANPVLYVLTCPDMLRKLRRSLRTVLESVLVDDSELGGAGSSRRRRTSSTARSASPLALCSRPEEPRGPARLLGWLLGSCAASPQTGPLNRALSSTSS
Nature of the assay: CRTH2 receptor binding assay ([3H]PGD2 competition on whole transfected cells). To be noted: competition binding with 0.1 nM [3H]PGD2, whole cells expressing CRTH2, 3 h at 4° C. The source says:
Generation/origin of the cDNA Constructs. The coding sequence of the human CRTH2 receptor (genbank accession no NM_004778) was amplified by PCR from a human hippocampus cDNA library and inserted into the pcDNA3.1(+) expression vector (invitrogen) via 5′ HindIII and 3′ EcoRI. The sequence identity of the construct was verified by restriction endonuclease digests and sequencing in both directions on an ABI Prism (Applied Biosystems, Foster City, Calif.).
Cell Culture and Transfection. COS-7 cells were grown in Dulbecco's modified Eagle's medium (DMEM) 1885 supplemented with 10% fetal bovine serum, 100 units/ml penicillin, […] streptomycin, and kept at 37° C. in a 10% CO2 atmosphere. HEK293 cells were maintained in Minimum Essential medium (MEM) supplemented with 10% (v/v) heat inactivated fetal calf serum (HIFCS), 2 mM Glutamax™-I, 1% non essential amino acids (NEAA), 1% sodium pyruvate and 10 μg/ml gentamicin. For binding experiments, COS7 cells were transiently transfected with the CRTH2 receptor using a calcium phosphate-DNA coprecipitation method with the addition of chloroquine (as described by Holst B, Hastrup H, Raffetseder U, Martini L, Schwartz T W. J Biol. Chem. 2001 Jun. 8; 276(23):19793-9.)
Binding assay. 24 h after transfection COS-7 cells were seeded into 96 well plates at a density of 30.000 cells/well. Competition binding experiments on whole cells were then performed about 18-24 h later using 0.1 nM [^3H]PGD2 (NEN, 172 Ci/mmol) in a binding buffer consisting of HBSS (GIBCO) and 10 mM HEPES. Competing ligands were diluted in DMSO which was kept constant at 1% (v/v) of the final incubation volume. Total and nonspecific binding were determined in the absence and presence of 10 μM PGD2. Binding reactions were routinely conducted for 3 h at 4° C. and terminated by 2 washes (100 μl each) with ice cold binding buffer. Radioactivity was determined by liquid scintillation counting in a TOPCOUNTER (Packard) following over night incubation in Microscint 20. Stable HEK293 cells were seeded at a density of 30.000 cells/well 18-24 h prior to the binding assay which was performed essentially as described for COS7 cells above. Determinations were made in duplicates.
Curve analysis was performed with the GraphPadPrism software 3.0 (Graphpad Prism Inc., San Diego, USA) and IC50 values were calculated as a measure of the antagonistic potencies.
In the case of `O=C(Nc1ccccc1C(=O)O)c1cccc(NC(=O)c2cccs2)c1` [B33], the pIC50 (as a rule, the negative decadic logarithm of the IC50, by convention in mol/L) was 5.30 to 6.30. In the case of `COc1cc(C(=O)Nc2cccc(C(=O)Nc3ccccc3C(=O)O)c2)cc(OC)c1OC` [B34] it was 5.30 to 6.30. Turning to `O=C(Nc1ccccc1C(=O)O)c1cccc(NC(=O)c2ccco2)c1` [B35], the pIC50 is < 5.30. Turning to `O=C(Nc1ccccc1C(=O)O)c1cccc(NC(=O)C(c2ccccc2)c2ccccc2)c1` [B36], the pIC50 is > 6.30.

The molecule `O=C(Cc1ccccc1)Nc1cccc(C(=O)Nc2ccccc2C(=O)O)c1` [B37] showed a negative logarithm of the IC50 (pIC50) of 5.30 to 6.30. Next, `COc1cccc(OC)c1C(=O)Nc1cccc(C(=O)Nc2ccccc2C(=O)O)c1` [B38]: 5.30 to 6.30; `COc1ccc(OCC(=O)Nc2cccc(C(=O)Nc3ccccc3C(=O)O)c2)cc1` [B39]: 5.30 to 6.30; `CCCOc1ccc(C(=O)Nc2cccc(C(=O)Nc3ccccc3C(=O)O)c2)cc1` [B40]: > 6.30. Turning to `CCCOc1cccc(C(=O)Nc2cccc(C(=O)Nc3ccccc3C(=O)O)c2)c1` [B41], the pIC50 is > 6.30. Next, `O=C(CSCc1ccccc1)Nc1cccc(C(=O)Nc2ccccc2C(=O)O)c1` [B42]: > 6.30; `O=C(Nc1cccc(C(=O)Nc2ccccc2C(=O)O)c1)c1ccc(I)cc1` [B43]: > 6.30; `O=C(Nc1ccc(O)cc1C(=O)O)c1cccc(NC(=O)c2ccco2)c1` [B44]: 5.30 to 6.30. Next, `O=C(Nc1ccc(C(=O)Nc2ccccc2C(=O)O)cc1)c1ccc(Br)cc1` [B45]: 5.30 to 6.30; `Cc1ccc(NS(=O)(=O)c2cccc(C(=O)Nc3ccccc3C(=O)O)c2)cc1` [B46]: 5.30 to 6.30.

Turning to `O=C(Nc1ccccc1C(=O)O)c1cccc(S(=O)(=O)Nc2ccccc2)c1` [B47], the pIC50 is 5.30 to 6.30. In the case of `COc1ccc(NS(=O)(=O)c2cccc(C(=O)Nc3ccccc3C(=O)O)c2)cc1` [B48] it was 5.30 to 6.30; in that of `O=C(Nc1ccccc1C(=O)O)c1ccc(Br)c(S(=O)(=O)NCc2ccccc2)c1` [B50], 5.30 to 6.30; in that of `COc1ccc(NS(=O)(=O)c2cc(C(=O)Nc3ccccc3C(=O)O)ccc2C)cc1` [B51], 5.30 to 6.30. Next, `Cc1ccc(C(=O)Nc2ccccc2C(=O)O)cc1S(=O)(=O)Nc1ccc(Br)cc1` [B52]: > 6.30; `Cc1ccccc1NS(=O)(=O)c1cccc(C(=O)Nc2ccccc2C(=O)O)c1` [B53]: 5.30 to 6.30; `O=C(Nc1ccccc1C(=O)O)c1ccc(Br)c(S(=O)(=O)Nc2ccc(Br)cc2)c1` [B54]: > 6.30. Next, `O=C(Nc1ccccc1C(=O)O)c1cccc(S(=O)(=O)Nc2ccc(Br)cc2)c1` [B55]: > 6.30; `Cc1cccc(NS(=O)(=O)c2ccc(Cl)c(C(=O)Nc3ccccc3C(=O)O)c2)c1` [B57]: 5.30 to 6.30. As for `O=C(Nc1ccccc1C(=O)O)c1cc(S(=O)(=O)Nc2ccc(Br)cc2)ccc1Cl` [B58], the pIC50 was 5.30 to 6.30. In the case of `Cc1ccc(C(=O)Nc2ccccc2C(=O)O)cc1S(=O)(=O)Nc1ccc(I)cc1` [B59] it was > 6.30. In the case of `COc1ccccc1NS(=O)(=O)c1cccc(C(=O)Nc2ccccc2C(=O)O)c1` [B60] it was 5.30 to 6.30.

As to `CCOc1ccc(NS(=O)(=O)c2cccc(C(=O)Nc3ccccc3C(=O)O)c2)cc1` [B61], the pIC50 is 5.30 to 6.30. In the case of `Cc1ccc(C(=O)Nc2ccccc2C(=O)O)cc1S(=O)(=O)Nc1cccc(Cl)c1` [B62] it was > 6.30; in that of `Cc1ccc(C(=O)Nc2ccccc2C(=O)O)cc1S(=O)(=O)Nc1ccc(F)cc1` [B63], 5.30 to 6.30. In the case of `CCOc1ccc(NS(=O)(=O)c2cc(C(=O)Nc3ccccc3C(=O)O)ccc2C)cc1` [B64], the pIC50 was 5.30 to 6.30. Next, `CC(=O)c1ccc(NS(=O)(=O)c2cc(C(=O)Nc3ccccc3C(=O)O)ccc2C)cc1` [B65]: < 5.30; `O=C(Nc1ccccc1C(=O)O)c1cccc(S(=O)(=O)NC2CCCCC2)c1` [B66]: 5.30 to 6.30. For the molecule `O=C(Nc1ccccc1C(=O)O)c1cc(S(=O)(=O)N2CCOCC2)ccc1Cl` [B67], the pIC50 is < 5.30. Take `O=C(Nc1ccccc1C(=O)O)c1cccc(S(=O)(=O)N2CCOCC2)c1` [B68]: the pIC50 was < 5.30. Next, `CCN(CC)S(=O)(=O)c1cc(C(=O)Nc2ccccc2C(=O)O)ccc1Br` [B69]: 5.30 to 6.30; `O=C(Nc1ccccc1C(=O)O)c1cc(S(=O)(=O)N2CCCCC2)c(Cl)cc1Cl` [B70]: > 6.30; `Cc1ccc(C(=O)Nc2ccccc2C(=O)O)cc1S(=O)(=O)N1CCOCC1` [B71]: 5.30 to 6.30. For the molecule `Cc1ccc(C(=O)Nc2ccccc2C(=O)O)cc1S(=O)(=O)N1CCCCC1` [B72], the pIC50 was > 6.30. In the case of `Cc1ccc(C(=O)Nc2ccccc2C(=O)O)cc1S(=O)(=O)NC1CCCCC1` [B73] it was 5.30 to 6.30.

In the case of `O=C(Nc1ccccc1C(=O)O)c1cccc(S(=O)(=O)N2CCCC2)c1` [B74], the pIC50 is < 5.30. Next, `Cc1ccc(C(=O)Nc2ccccc2C(=O)O)cc1S(=O)(=O)N1CCCCCC1` [B75]: 5.30 to 6.30; `CCN(CC)S(=O)(=O)c1cc(C(=O)Nc2ccccc2C(=O)O)ccc1OC` [B76]: 5.30 to 6.30. Next, `O=C(Nc1ccccc1C(=O)O)c1cc(S(=O)(=O)N2CCCCCC2)ccc1Cl` [B77]: 5.30 to 6.30; `Cc1ccc(S(=O)(=O)N2CCOCC2)cc1C(=O)Nc1ccccc1C(=O)O` [B78]: < 5.30. Next, `O=C(Nc1ccccc1C(=O)O)c1cc(S(=O)(=O)N2CCCC2)ccc1Cl` [B79]: 5.30 to 6.30; `O=C(Nc1ccccc1C(=O)O)c1cc(S(=O)(=O)N2CCCC2)c(Cl)cc1Cl` [B80]: 5.30 to 6.30.

Molecule `O=C(Nc1ccccc1C(=O)O)c1cccc(S(=O)(=O)N2CCCCC2)c1` [B81] had a pIC50 of 5.30 to 6.30.
